Data published in PMC6365485 (British Journal of Pharmacology, 2019).

Tests used:
[1] = molecular target: T1, human recombinant DP1 receptor (Homo sapiens, UniProt Q13258); assay: [3H]PGD2 displacement, membranes; type: binding
T1 sequence (Q13258 1-359): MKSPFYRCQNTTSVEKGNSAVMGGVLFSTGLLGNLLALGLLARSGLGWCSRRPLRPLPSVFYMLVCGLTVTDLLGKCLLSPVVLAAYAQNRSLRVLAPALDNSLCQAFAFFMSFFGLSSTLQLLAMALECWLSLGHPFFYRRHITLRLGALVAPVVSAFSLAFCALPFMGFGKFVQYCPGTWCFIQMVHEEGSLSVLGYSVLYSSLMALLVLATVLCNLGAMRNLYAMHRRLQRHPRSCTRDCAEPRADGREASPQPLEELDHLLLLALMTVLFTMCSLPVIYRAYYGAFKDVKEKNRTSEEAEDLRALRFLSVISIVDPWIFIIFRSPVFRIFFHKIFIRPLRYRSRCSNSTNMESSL

[2] = molecular target: T2, human recombinant EP1 receptor (Homo sapiens, UniProt P34995); assay: [3H]PGE2 displacement, membranes; type: binding
T2 sequence (P34995 1-402): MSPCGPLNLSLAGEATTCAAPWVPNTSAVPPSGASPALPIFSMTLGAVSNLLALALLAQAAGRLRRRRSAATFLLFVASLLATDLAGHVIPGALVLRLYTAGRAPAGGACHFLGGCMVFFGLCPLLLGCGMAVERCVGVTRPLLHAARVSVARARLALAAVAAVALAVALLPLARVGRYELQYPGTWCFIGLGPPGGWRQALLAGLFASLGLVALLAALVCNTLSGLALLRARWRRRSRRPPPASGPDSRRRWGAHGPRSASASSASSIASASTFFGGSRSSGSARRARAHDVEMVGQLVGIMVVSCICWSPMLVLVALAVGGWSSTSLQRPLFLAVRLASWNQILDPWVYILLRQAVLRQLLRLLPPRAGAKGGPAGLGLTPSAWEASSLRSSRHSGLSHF

Row | Ki [1] [nM] | Ki [2] [nM] | Compound
1 | 2.51 |  | CCCCC[C@H](O)/C=C/[C@H]1C(=O)C[C@H](O)[C@@H]1C/C=C\CCCC(=O)O [PGD2]
2 |  | 50.1 | CCCCC[C@H](O)/C=C/[C@H]1[C@H](O)CC(=O)[C@@H]1C/C=C\CCCC(=O)O [PGE2]
